Test results: patent US6841578B2, “Treatment and prevention of mucositis in cancer patients” (priority 2001, dated 2005)

Columns and labels:
[1] = test system: radiation-induced mucositis; experiment: Hamster model of acute radiation-induced mucositis treated with resveratrol; type: in vivo, Male Golden Syrian hamsters; settings: for percentage of days where hamsters had a mucositis score of three or higher: qd, day -1 to day 20, 40 Gy on day 0, control 46.0%
NF-κB = settings: induction by TNF-α; phosphorylation and nuclear translocation of p65 subunit suppressed; cited from earlier work

## Oc1ccc(/C=C/c2cc(O)cc(O)c2)cc1 [resveratrol, trans-3,4′,5-trihydroxystilbene]
[1]; 1 mM resveratrol, intraperitoneal
  percentage of days where hamsters had a mucositis score of three or higher: 21.6%
[1]; 5 mM resveratrol, intraperitoneal
  percentage of days where hamsters had a mucositis score of three or higher: 31.2%
[1]; intraperitoneal, 1 mM and 5 mM (FIG. 2)
  severity of mucositis compared to the control: reduced the severity of mucositis
[1]; intraperitoneal, 1 mM versus 5 mM
  efficacy of 1 mM compared with 5 mM treatment: more effective
[1]; topical, tid, 1 mM and 5 mM
  efficacy of topical application on mucositis: not statistically significant, indicated a trend of efficacy
NF-κB
  activation of NF-κB: blocked the activation of NF-κB
